Experimental data: ChEMBL document CHEMBL5108020, “Design and synthesis of novel benzimidazole derivatives as potential Pseudomonas aeruginosa anti-biofilm agents inhibiting LasR: Evidence from comprehensive molecular dynamics simulation and in vitro investigation” (Eur J Med Chem, 2022)
≈ marks a conversion by molar mass, not a printed value. Calls of active or inactive are those of the source. No cut-off for these calls is given here.

What was measured:
Pseudomonas aeruginosa [1] = assay: Antibacterial activity against Pseudomonas aeruginosa ATCC 27853 assessed as zone of growth inhibition incubated for 24 hrs by agar diffusion method; format: functional
Staphylococcus aureus = assay: Antibacterial activity against Staphylococcus aureus ATCC 43300 assessed as inhibition of bacterial growth incubated for 24 hrs by agar diffusion method; format: functional, organism-based
Pseudomonas aeruginosa [2] = assay: Antibacterial activity against Pseudomonas aeruginosa assessed as inhibition of bacterial growth incubated for 24 hrs by CLSI broth microdilution method; format: functional; conditions: for MIC: Pseudomonas aeruginosa
[3] = Inhibition of quorum sensing system in Pseudomonas aeruginosa assessed as inhibition of biofilm production at sub-MIC incubated for 24 hrs by crystal violet staining based analysis
[4] = Inhibition of quorum sensing system in Pseudomonas aeruginosa assessed as inhibition of pyocyanin production at sub-MIC by absorbance based analysis
[5] = Inhibition of quorum sensing system in Pseudomonas aeruginosa assessed as inhibition of rhamnolipid production at sub-MIC by spectrophotometric method
Klebsiella pneumoniae = assay: Antibacterial activity against Klebsiella pneumoniae ATCC 700603 assessed as inhibition of bacterial growth incubated for 24 hrs by agar diffusion method; format: functional, organism-based
Escherichia coli = assay: Antibacterial activity against Escherichia coli ATCC 25922 assessed as inhibition of bacterial growth incubated for 24 hrs by agar diffusion method; format: functional, organism-based
Bacillus subtilis = assay: Antibacterial activity against Bacillus subtilis ATCC 6633 assessed as inhibition of bacterial growth incubated for 24 hrs by agar diffusion method; format: functional, organism-based
[6] = Cytotoxicity against human HDFa cells assessed as reduction in cell viability incubated for 24 hrs by MTT assay; format: toxicity, cell-based
[7] = Selectivity index, ratio of IC50 for human HDFa cells to MIC for antibacterial activity against Pseudomonas aeruginosa; format: toxicity; conditions: read-out: Selectivity Index
Candida albicans = assay: Antifungal activity against Candida albicans ATCC 60193 assessed as inhibition of fungal growth incubated for 48 hrs by agar diffusion method; format: functional, organism-based
[8] = Inhibition of quorum sensing system in Pseudomonas aeruginosa assessed as downregulation of lasR gene expression at sub-MIC by fluorescence real time PCR analysis
[9] = Inhibition of quorum sensing system in Pseudomonas aeruginosa assessed as downregulation of rhlR gene expression at sub-MIC by fluorescence real time PCR analysis

Compound	MIC (Pseudomonas aeruginosa [2])	inhibition [3]	inhibition [4]	inhibition [5]	inhibition [8]	inhibition [9]	inhibition zone (IZ) (Pseudomonas aeruginosa [1])	Activity (Staphylococcus aureus)	SubMIC (Pseudomonas aeruginosa [2])	Activity (Klebsiella pneumoniae)	Activity (Escherichia coli)	Activity (Bacillus subtilis)	IC50 at 24 h [6]	selectivity ratio [7]	Activity (Candida albicans)
c1ccc2[nH]c(-c3ccc(N4CCCCC4)cc3)nc2c1	203 µM (≈ 56.3 µg/mL)	67.3%	63.6%	49.6%			19 mm	Active	50.4 µM						
O=C(COc1ccc(-c2nc3ccccc3[nH]2)cc1)Nc1ccccc1	164 µM (≈ 56.2 µg/mL)	51.5%	36.7%	28.2%			19 mm		40.7 µM						
CN1CCN(c2ccc(-c3nc4ccccc4[nH]3)cc2)CC1	193 µM (≈ 56.4 µg/mL)	71.7%	68.7%	54%	61.7%		20 mm	Active	48 µM	Active	Active		217 µg/mL (≈ 742 µM)	3.86	Active
C[C@@H](O)[C@H]1C(=O)N2C(C(=O)O)=C(SCCNC=N)C[C@H]12 [IMIPENEM ANHYDROUS]	93.9 µM (≈ 28.1 µg/mL)						19 mm								
c1ccc2[nH]c(-c3ccc(N4CCOCC4)cc3)nc2c1	201 µM (≈ 56.2 µg/mL)	60.5%	55.2%	35.7%			18 mm		50.1 µM	Active					
COc1ccc(NC(=O)COc2ccc(-c3nc4ccccc4[nH]3)cc2)cc1	151 µM (≈ 56.2 µg/mL)	67.1%	61.8%	46.4%			18 mm	Active	37.4 µM						
Cc1ccc2[nH]c(-c3ccc(OCC(=O)Nc4ccccc4)cc3)nc2c1	78.7 µM (≈ 28.1 µg/mL)	56.3%	54.3%	33%			15 mm		19.5 µM			Active			
O=C(COc1ccc(-c2nc3ccccc3[nH]2)cc1)Nc1ccccc1[N+](=O)[O-]	145 µM (≈ 56.2 µg/mL)	63.8%	60.3%	44.6%			15 mm		36 µM			Active			
O=C(COc1ccc(-c2nc3ccccc3[nH]2)cc1)Nc1ccc(Cl)cc1	149 µM (≈ 56.2 µg/mL)	63.1%	58%	34.4%			17 mm		37 µM	Active					Active
c1ccc2[nH]c(-c3ccc(-n4ccnc4)cc3)nc2c1	109 µM (≈ 28.3 µg/mL)	46.1%	34%	20.1%			18 mm		26.8 µM	Active					
Cc1ccccc1NC(=O)COc1ccc(-c2nc3ccccc3[nH]2)cc1	157 µM (≈ 56.2 µg/mL)	68.9%	68%	51.8%	26%	16.3%	16 mm		39.1 µM			Active	338 µg/mL (≈ 946 µM)	6.01	
O=C(COc1ccc(-c2nc3ccccc3[nH]2)cc1)Nc1ccc(F)cc1	156 µM (≈ 56.2 µg/mL)	51.8%	37%	27.7%			17 mm		38.7 µM						
CC[C@H]1OC(=O)[C@H](C)[C@@H](O[C@H]2C[C@@](C)(OC)[C@@H](O)[C@H](C)O2)[C@H](C)[C@@H](O[C@@H]2O[C@H](C)C[C@H](N(C)C)[C@H]2O)[C@](C)(O)C[C@@H](C)CN(C)[C@H](C)[C@@H](O)[C@]1(C)O [AZITHROMYCIN]	85.4 µM (≈ 64 µg/mL)	52.5%	65%	55.2%	40.8%	41.5%			20.1 µM						
C/C(=C\C(=O)OCCCCCCCCC(=O)O)C[C@@H]1OC[C@H](C[C@@H]2O[C@H]2[C@@H](C)[C@H](C)O)[C@@H](O)[C@H]1O [MUPIROCIN]													161 µg/mL (≈ 322 µM)		
Cc1ccc(NC(=O)COc2ccc(-c3nc4ccccc4[nH]3)cc2)cc1	157 µM (≈ 56.2 µg/mL)	52.4%	36.4%	25.1%			13 mm		39.1 µM						
O=C(COc1ccc(-c2nc3cc(Cl)ccc3[nH]2)cc1)Nc1ccccc1	74.4 µM (≈ 28.1 µg/mL)	53.1%	35.5%	20.7%			15 mm		18.5 µM				102 µg/mL (≈ 270 µM)	3.63	
O=C(COc1ccc(-c2nc3ccccc3[nH]2)cc1)Nc1ccc([N+](=O)[O-])cc1	145 µM (≈ 56.2 µg/mL)	63.6%	57.6%	35.2%			17 mm		36 µM						

Continued, in another order:

MIC (Pseudomonas aeruginosa [2])	inhibition [3]	inhibition [4]	inhibition [5]	inhibition [8]	inhibition [9]	Compound	inhibition zone (IZ) (Pseudomonas aeruginosa [1])	Activity (Staphylococcus aureus)	SubMIC (Pseudomonas aeruginosa [2])	Activity (Klebsiella pneumoniae)	Activity (Escherichia coli)	Activity (Bacillus subtilis)	IC50 at 24 h [6]	selectivity ratio [7]	Activity (Candida albicans)
71.7 µM (≈ 28.1 µg/mL)	29%	6.5%	3%			Cc1ccccc1NC(=O)COc1ccc(-c2nc3cc(Cl)ccc3[nH]2)cc1	16 mm		17.8 µM	Active					
36.1 µM (≈ 14 µg/mL)	36.7%	29%	12.6%			COc1ccc(NC(=O)COc2ccc(-c3nc4cc(C)ccc4[nH]3)cc2)cc1	15 mm		9 µM		Active	Active			
37.2 µM (≈ 14 µg/mL)	59.6%	55.8%	35.2%			Cc1ccc2[nH]c(-c3ccc(OCC(=O)Nc4ccc(F)cc4)cc3)nc2c1	19 mm		9.3 µM			Active			
68.2 µM (≈ 28.1 µg/mL)	31%	13.4%	3.7%			O=C(COc1ccc(-c2nc3cc(Cl)ccc3[nH]2)cc1)Nc1ccc(Cl)cc1	17 mm		16.9 µM	Active	Active				
69.9 µM (≈ 28.1 µg/mL)	64.9%	60%	42.3%			Cc1ccc2[nH]c(-c3ccc(OCC(=O)Nc4ccccc4[N+](=O)[O-])cc3)nc2c1	14 mm		17.4 µM			Active	411 µg/mL (≈ 1020 µM)	14.6	
66.5 µM (≈ 28.1 µg/mL)	32.5%	14.8%	7%			O=C(COc1ccc(-c2nc3cc(Cl)ccc3[nH]2)cc1)Nc1ccc([N+](=O)[O-])cc1	16 mm		16.5 µM	Active					
69.9 µM (≈ 28.1 µg/mL)	44.1%	33.7%	15%			Cc1ccc2[nH]c(-c3ccc(OCC(=O)Nc4ccc([N+](=O)[O-])cc4)cc3)nc2c1	15 mm		17.4 µM			Active			
57.7 µM (≈ 21.4 µg/mL)	64.9%	60%	37.8%			Cc1ccc(NC(=O)COc2ccc(-c3nc4cc(C)ccc4[nH]3)cc2)cc1	16 mm		18.8 µM		Active				
34.3 µM (≈ 14 µg/mL)	39.2%	28.9%	13.8%			COc1ccc(NC(=O)COc2ccc(-c3nc4cc(Cl)ccc4[nH]3)cc2)cc1	17 mm		8.5 µM			Active			Active
35.7 µM (≈ 14 µg/mL)	31.3%	24.5%	11.4%			Cc1ccc(NC(=O)COc2ccc(-c3nc4cc(Cl)ccc4[nH]3)cc2)cc1	18 mm		8.9 µM	Active					
57.7 µM (≈ 21.4 µg/mL)	39.5%	31%	13.6%			Cc1ccc2[nH]c(-c3ccc(OCC(=O)Nc4ccccc4C)cc3)nc2c1	14 mm		18.8 µM						Active
66.5 µM (≈ 28.1 µg/mL)	51.8%	35.8%	20.4%			O=C(COc1ccc(-c2nc3cc(Cl)ccc3[nH]2)cc1)Nc1ccccc1[N+](=O)[O-]	16 mm		16.5 µM	Active					
35.7 µM (≈ 14 µg/mL)	55.7%	38.2%	29.6%			Cc1ccc2[nH]c(-c3ccc(OCC(=O)Nc4ccc(Cl)cc4)cc3)nc2c1	19 mm		8.9 µM			Active			
35.3 µM (≈ 14 µg/mL)	45%	32.8%	18.1%			O=C(COc1ccc(-c2nc3cc(Cl)ccc3[nH]2)cc1)Nc1ccc(F)cc1	19 mm		8.8 µM	Active					Active
